Target: Angiopoietin-1 receptor (Homo sapiens, UniProt Q02763)
Assay: Homogeneous Time-Resolved Fluorescence (HTRF) Enzyme Assay
Procedure: The assay uses purified GST-Tie-2 or GST-VEGFR2 interacting with biotinylated peptide substrates. HTRF is based on the proximity of europium cryptate (donor fluorophore)-labeled antiphosphotyrosine and streptavidin labeled with APC (allophycocyanin), which have been brought together by a binding reaction. […] The IC50 values for inhibitors were determined by a four-parameter sigmoidal curve fit.

Angiopoietin-1 receptor, sequence (Q02763 whole entry): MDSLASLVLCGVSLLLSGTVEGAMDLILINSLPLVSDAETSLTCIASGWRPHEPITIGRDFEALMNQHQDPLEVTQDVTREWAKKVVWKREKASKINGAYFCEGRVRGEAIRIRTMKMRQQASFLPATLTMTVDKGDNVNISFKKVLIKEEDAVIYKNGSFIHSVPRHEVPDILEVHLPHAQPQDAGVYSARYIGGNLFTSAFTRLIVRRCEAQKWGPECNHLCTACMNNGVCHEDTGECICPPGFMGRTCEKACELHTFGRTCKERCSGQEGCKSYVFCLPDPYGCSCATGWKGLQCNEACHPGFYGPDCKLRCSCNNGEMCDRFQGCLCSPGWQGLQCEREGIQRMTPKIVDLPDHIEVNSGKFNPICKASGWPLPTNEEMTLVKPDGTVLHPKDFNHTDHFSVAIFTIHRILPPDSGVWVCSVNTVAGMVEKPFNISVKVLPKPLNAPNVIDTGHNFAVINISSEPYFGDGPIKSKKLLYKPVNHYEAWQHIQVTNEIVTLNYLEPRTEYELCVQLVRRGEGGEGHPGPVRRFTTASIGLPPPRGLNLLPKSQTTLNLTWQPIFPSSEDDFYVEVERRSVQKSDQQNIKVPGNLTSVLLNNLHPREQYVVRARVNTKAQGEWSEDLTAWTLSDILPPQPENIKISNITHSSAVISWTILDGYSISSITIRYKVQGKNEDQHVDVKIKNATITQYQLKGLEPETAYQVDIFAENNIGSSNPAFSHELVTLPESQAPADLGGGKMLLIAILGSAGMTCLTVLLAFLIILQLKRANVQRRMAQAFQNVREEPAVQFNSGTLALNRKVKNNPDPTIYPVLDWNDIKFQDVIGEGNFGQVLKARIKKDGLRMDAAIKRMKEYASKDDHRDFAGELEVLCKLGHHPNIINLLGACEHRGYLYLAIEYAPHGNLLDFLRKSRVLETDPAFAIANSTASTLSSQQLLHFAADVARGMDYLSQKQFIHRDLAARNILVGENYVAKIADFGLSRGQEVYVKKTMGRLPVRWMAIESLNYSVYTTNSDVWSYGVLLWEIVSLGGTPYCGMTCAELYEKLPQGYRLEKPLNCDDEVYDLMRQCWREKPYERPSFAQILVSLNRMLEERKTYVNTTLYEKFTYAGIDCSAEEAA

O=C(Nc1ccc(Oc2ccc3nc(NC(=O)c4ccccc4-n4cccc4)[nH]c3c2)cc1)Nc1cc(C(F)(F)F)ccc1F [N-(6-(4-((2-Fluoro-5(trifluoromethyl)phenyl)aminocarbonylamino)phenoxy)-1H-benzimidazol-2-yl)-2-(1H-pyrrol-1-yl)benzamide]
IC50: 1.3 µM
